Source: patent publication US5795912A, “Therapeutic composition for corneal impairment” (Senju Pharmaceutical, Co., Ltd., priority 1997, dated 1998)

Key:
[1] = tested on: UV-induced corneal lesion; assay: Inhibitory effect on UV-induced corneal lesions in rabbits (fluorescein penetration into the cornea, corneal epithelial barrier function); assay type: in vivo, rabbit (white rabbits); settings: from Table 1 and FIG. 1
Description: The inhibitory effect of the present compound on UV-induced corneal lesions in rabbits was evaluated. Test substance: L-Ascorbyl DL-α-tocopherylphosphate potassium (abbreviation: EPC-K). Method: White rabbits were used; 4 animals assigned to the present compound treatment group and 3 assigned to a control group (the nictitating membrane was excised beforehand).
For UV irradiation, Hoya-Schott's HLS200U (dominant wavelength 365 nm) equipped with a 200 W mercury-xenon lamp as the light source was used. Ushio Electric's Unimeter UIT-101 was used for the determination of luminous energy.
One eye of each rabbit was kept open with an eye speculum and set at a distance of 43 cm from the light source so that the irradiation energy would be 0.024 J/cm^2. […]
The degree of rabbit corneal lesion was evaluated by the following method^1). Using fluorescein as a tracer, the fluorescence intensity of the tracer dye penetrating into the cornea within a predetermined region was measured for a quantitative assessment of the barrier function of the corneal epithelium (The corneal epithelium has a barrier function^2) to restrict penetration of any substance into the deep layer of the cornea and when an erosion or other injury occurs in the corneal epithelium, this barrier function is compromised so that the penetration of the substance into the depth of the cornea is increased). […]

[2] = tested on: rats; assay: LD50, p.o. (rats); assay type: in vivo
[3] = tested on: rats; assay: LD50, i.v. (rats); assay type: in vivo

Cc1c(C)c2c(c(C)c1OP(=O)(O)OC1=C(O)[C@@H]([C@@H](O)CO)OC1=O)CCC(C)(CCCC(C)CCCC(C)CCCC(C)C)O2 (mixture of isomers) [EPC-K, L-ascorbyl DL-α-tocopheryl phosphate potassium]
inhibition of UV-induced corneal lesion (result in words) [1]: effectively inhibits UV-induced corneal lesion | LD50 [2]: ≥ 5000 mg/kg | LD50 [3]: ≥ 100 mg/kg
